This is an account of results in patent publication US12042492B2 (priority 2020, dated 2024).

The target of this assay is T1, BACE1 (Mus musculus, UniProt P56818).
T1 construct: endogenous in cells; host or cells: N2a mouse neuroblastoma cells (ATCC) transfected with mutant APP Swe/Ind cDNA
In words: Sandwich ELISA of BACE1 activity in mAPP N2a cells. The format is cell-based. The note with it: mAPP cells treated with ligand 1 relative to untreated mAPP cells; P=0.001. The text has this:
ELISA Ligand based inhibition of BACE1 activity, Aβ 40 and 42. BACE1 activity, Levels of Aβ40 and 42. To determine whether ligand 1 lowers BACE1 activity and reducing the Aβ40 and Aβ42 levels, the inventors measured BACE1 activity, Aβ40 and Aβ42 levels in mutant APP cells (N2a+mutant cDNA transfected) treated with ligand 1 using Sandwich ELISA.
The N2a cells grown for 6 days in a serum-free medium (1:1 mixture of DMEM and OptiMEM, plus penicillin and streptomycin (Invitrogen, Carlsbad, CA, USA) until the cells developed neuronal processes. As shown in (FIG. 10), these cells were used for 4 groups—one control group and 3 treatment groups. 1) untreated N2a cells (the control group), 2) N2a cells treated with ligand 1 (N2a+ligand 1), 3) N2a cells transfected mAPP with the (lipofectamine) (20 μM final concentration for 6 hrs (mAPP), 4) N2a cells transfected with mAPP cDNA for 6 hrs, treated with ligand 1 (mAPP+ligand 1 treatment group), N2a cells treated with ligand 1 for 24 hrs and then treated with the mAPP cDNA for 6 hrs (ligand 1+mAPP treatment group). […]
ELISA Ligand based BACE1 inhibition of Aβ 40 and 42. […] For each sample, Aβ1-40 and Aβ1-42 were measured with commercial colorimetric ELISA kits (Biosource International, Camarillo, CA, USA) specific for human. […] Protein concentrations of the homogenates were determined following the […], and Aβ was expressed as pg Aβ/mg protein.

Entries after “also recorded” stand apart in the source; their conditions may differ.

T1 sequence (P56818 46-501): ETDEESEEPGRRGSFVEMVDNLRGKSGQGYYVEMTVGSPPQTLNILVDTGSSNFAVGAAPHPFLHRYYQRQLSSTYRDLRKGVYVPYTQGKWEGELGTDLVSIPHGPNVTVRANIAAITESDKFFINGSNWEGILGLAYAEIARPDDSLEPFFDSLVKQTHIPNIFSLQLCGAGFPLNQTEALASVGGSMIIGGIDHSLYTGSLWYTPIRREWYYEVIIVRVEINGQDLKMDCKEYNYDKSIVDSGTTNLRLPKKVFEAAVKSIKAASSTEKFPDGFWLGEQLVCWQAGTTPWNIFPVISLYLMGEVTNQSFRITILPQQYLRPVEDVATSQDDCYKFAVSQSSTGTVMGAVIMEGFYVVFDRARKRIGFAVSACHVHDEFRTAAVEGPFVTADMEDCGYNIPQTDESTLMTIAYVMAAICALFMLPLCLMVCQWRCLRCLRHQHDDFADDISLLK

Turning to “[(6As,8S,10aS,12aS)-10a, 12a-dimethyl-2-oxo-3,4,4a,4b,5,6,6a,7,8,9,10,10b,11,12-tetradecahydro-1H-naphtho[2,1-f]quinolin-8-yl] 4-[4-[bis(2-chloroethyl)amino]phenyl]butanoate [Ligand 1]”, the BACE1 activity result is “significantly lower; also recorded: significantly reduced”.
